Source: paper PMC7689923 (ACS Omega, 2020)
Converted amounts (≈) assume the structure as drawn. “And” between values parts separate entries of the source, which are not always exact repeats. Equal values may be shown once.

Tests used:
Mtb = settings: cited from earlier work
KasA [1] = target: T1, KasA (Mycobacterium tuberculosis, UniProt P9WQD9); settings: binder of KasA; cited from earlier work
T1 sequence (P9WQD9 1-416): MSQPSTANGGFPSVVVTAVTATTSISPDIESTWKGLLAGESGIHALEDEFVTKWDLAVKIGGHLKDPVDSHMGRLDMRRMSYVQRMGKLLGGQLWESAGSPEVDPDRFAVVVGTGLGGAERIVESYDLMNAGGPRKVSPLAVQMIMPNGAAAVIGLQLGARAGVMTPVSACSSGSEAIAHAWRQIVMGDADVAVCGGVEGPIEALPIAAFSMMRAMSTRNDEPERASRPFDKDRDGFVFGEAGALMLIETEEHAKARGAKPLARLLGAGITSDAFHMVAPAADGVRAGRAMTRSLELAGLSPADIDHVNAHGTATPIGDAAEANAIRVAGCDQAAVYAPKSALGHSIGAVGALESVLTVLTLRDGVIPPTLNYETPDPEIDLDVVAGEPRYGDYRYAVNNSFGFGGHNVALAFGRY

KasA [2] = target: T1, KasA; assay: biochemical; assay type: binding; settings: for KasA binding via MST (in words): at the concentrations tested
KasA [3] = target: T1, KasA; assay: Thermal shift experiments using nanoDSF; assay type: binding

Structure (SMILES)	minimum inhibitor concentration (MIC) (Mtb) [M]	EC50 (KasA [1]) [µM]	Kd (KasA [2])	KasA binding via MST (in words) (KasA [2])	change in Tm (in words) (KasA [3])	MIC (Mtb; Mtb inhibitor) [µM]
CCCCS(=O)(=O)Nc1ccc2cnn(C)c2c1 [DG167]	0.39	0.131 ± 0.0182	–	–	–	–
CCCc1nn(C)c2c(=O)[nH]c(-c3cc(S(=O)(=O)N4CCN(C)CC4)ccc3OCC)nc12 [Sildenafil, sildenafil]	–	–	32.5 µM and 30 to 40 µM	–	–	–
CC[C@H](C)C(=O)O[C@H]1C[C@@H](C)C=C2C=C[C@H](C)[C@H](CC[C@@H]3C[C@@H](O)CC(=O)O3)[C@H]21 [Lovastatin, lovastatin]	–	–	224 µM and > 90 µM	showed binding to KasA	did not show significant changes in Tm	–
COC(=O)Nc1nc2cc(C(=O)c3ccc(F)cc3)ccc2[nH]1 [Flubendazole, flubendazole]	–	–	38.5 µM and 30 to 40 µM	showed binding to KasA	did not show significant changes in Tm	–
CCCNC(=O)NS(=O)(=O)c1ccc(Cl)cc1 [Chlorpropamide]	–	–	90.6 µM and > 90 µM	showed binding to KasA	did not show significant changes in Tm	–
Oc1cc(Cl)ccc1Oc1ccc(Cl)cc1Cl [Triclosan, triclosan]	–	–	–	–	–	12.5 (≈ 3.62 µg/mL)
